Reference: PMC10873978, “Novel tetrahydroisoquinolines as DHFR and CDK2 inhibitors: synthesis, characterization, anticancer activity and antioxidant properties” (BMC Chemistry, 2024)
Entries after “also recorded” stand apart in the source; their conditions may differ.

Legend:
[1] = tested on: A549 cell line; test: In vitro cytotoxic activity, MTT method, A549; conditions: for IC50: Homo sapiens, read-out: IC50 ± SD
Procedure: (§1) Cell lines: The in vitro human breast cancerous cell line (MCF7), lung cancerous cell lines (A549) and normal cell lines were purchased from Serum and Vaccine formulation in Cairo-Egypt.
(§2) In vitro cytotoxic activity of all synthesized compounds against two human breast cell line (MCF7) and lung cell lines (A549) was evaluated according to the MTT method. Firstly, Growth the cell line medium in 96 well tissue culture plate was injected with 10^5 cells/mL (100 uL/plate well) of the cell line and incubated at 37 °C for 24 h to develop a monolayer sheet then the formed growth medium was poured from 96 well microtiter plates after the confluent sheet of cells. […] Secondly, add 0.1 mL of each concentration tetrahydroisoquinoline sample to each plate. The plates were incubated at 37 °C. Thirdly MTT solution (5 mg/mL in PBS) is prepared. Add 20 µL of MTT solution to each well plates. And shaking in 150 rpm for 5 min, to mix the MTT into the media. Then incubate at (37 °C, 5% CO2) for 1–5 h. Finally read the optical density at 560 nm and subtract background at 620 nm.
(§3) In this work, doxorubicin was used as a positive control drug for comparison with the synthesized compounds under the same experimental conditions.

[2] = DPPH scavenging antioxidant activity; conditions: for antioxidant activity compared with Vitamin C: DPPH
Procedure: The antioxidant activity of ten compounds was determined using DPPH [32–34]. A solution 1: prepared by dissolving DPPH (0.002 g) in ethanol (50 mL etnanol). Solution 2: prepared by dissolving different weights 0.05, 0.01 g of each sample in 1 mL of DMSO then take 10 µL of each sample solution with 1 mL ethanol. Then mix 1 mL of solution 1 with 1 mL of solution 2 then vortex the resulting mixture in the dark for about 30 min. The absorbance of the mixture was measured by spectrophotometer at λmax = 517 nm against blank 1 mL absolute ethanol and compared to the ascorbic acid (Vitamin C).
Ten newly synthesized compounds were studied as in vitro antioxidants by measuring of their DPPH scavenging activity which is represented as a percentage % [32]^. Results are represented by mean ± SD of three replicates. […] The higher dose concentration of 0.05 μg/mL represents higher antioxidant activity. […] The high antioxidant activity is referred to the presence of C=O, NH2, and OH groups like ascorbic acid which can be easily oxidized and reduced and can be used as antioxidant drugs. (Fig. 8 and Table 9).

[3] = tested on: MCF7 cell line; test: In vitro cytotoxic activity, MTT method, MCF7; format: cell-based, human; conditions: for IC50: Homo sapiens, MCF7, MCF7 cell line, MTT
Procedure: as §1, §2, §3

CC(=O)C1C(c2ccc(N(C)C)cc2)c2c(C)nc(SCC#N)c(C#N)c2CC1(C)O (centres unmarked) [Compound 6, 2-[(7-Acetyl-4-cyano-1,6-dimethyl-6-hydroxy-8-(4-N,N-dimethylamino-phenyl)-5,6,7,8-tetrahydroisoquinolin-3-yl)thio]acetonitrile]
Viability % ([1]; A549, Conc. 0.0487 µMol): 99.7%
Toxicity % ([1]; A549, Conc. 0.0975 µMol): 0.50%
Viability % ([1]; A549, Conc. 0.0975 µMol): 99.5%
Toxicity % ([1]; A549, Conc. 0.195 µMol): 0.6312%
Viability % ([1]; A549, Conc. 0.195 µMol): 99.37%
Toxicity % ([1]; A549, Conc. 0.391 µMol): 1.46%
Viability % ([1]; A549, Conc. 0.391 µMol): 98.54%
Toxicity % ([1]; A549, Conc. 0.781 µMol): 15.46%
Viability % ([1]; A549, Conc. 0.781 µMol): 84.54%
Toxicity % ([1]; A549, Conc. 1.562 µMol): 29.7%
Viability % ([1]; A549, Conc. 1.562 µMol): 70.3%
Toxicity % ([1]; A549, Conc. 3.125 µMol): 43.83%
Viability % ([1]; A549, Conc. 3.125 µMol): 56.17%
Toxicity % ([1]; A549, Conc. 6.25 µMol): 74.71%
Viability % ([1]; A549, Conc. 6.25 µMol): 25.29%
Toxicity % ([1]; A549, Conc. 12.5 µMol): 88.52%
Viability % ([1]; A549, Conc. 12.5 µMol): 11.48%
Toxicity % ([1]; A549, Conc. 25 µMol): 96.29%
Viability % ([1]; A549, Conc. 25 µMol): 3.708%
IC50 [1]: 3736 ± 2 nM
DPPH scavenging, inhibition (%) ([2]; 0.01 µg/mL): 69.67 ± 5.65%
DPPH scavenging, inhibition (%) ([2]; 0.05 µg/mL): 83.72 ± 4.08%
antioxidant activity compared with Vitamin C [2]: higher result than Vitamin C; also recorded: higher antioxidant activity than Vitamin C
IC50 [3]: 329 ± 5 nM
Viability % ([3]; MCF7, 0.0487 µMol): 80.118%
Toxicity % ([3]; MCF7, 0.0975 µMol): 25.5567%
Viability % ([3]; MCF7, 0.0975 µMol): 74.5543%
Toxicity % ([3]; MCF7, 0.195 µMol): 38.24%
Viability % ([3]; MCF7, 0.195 µMol): 61.76%
Toxicity % ([3]; MCF7, 0.391 µMol): 59.68%
Viability % ([3]; MCF7, 0.391 µMol): 40.32%
Toxicity % ([3]; MCF7, 0.781 µMol): 70.71%
Viability % ([3]; MCF7, 0.781 µMol): 29.29%
Toxicity % ([3]; MCF7, 1.562 µMol): 76.35%
Viability % ([3]; MCF7, 1.562 µMol): 23.65%
Toxicity % ([3]; MCF7, 3.125 µMol): 85.7%
Viability % ([3]; MCF7, 3.125 µMol): 14.3%
Toxicity % ([3]; MCF7, 6.25 µMol): 93.38%
Viability % ([3]; MCF7, 6.25 µMol): 6.618%
Toxicity % ([3]; MCF7, 12.5 µMol): 97.14%
Viability % ([3]; MCF7, 12.5 µMol): 2.859%
Toxicity % ([3]; MCF7, 25 µMol): 97.34%
Viability % ([3]; MCF7, 25 µMol): 2.655%

CC(=O)C1C(c2ccc(N(C)C)cc2)c2c(C)nc3sc(C(=O)Nc4ccccc4)c(N)c3c2CC1(C)O (centres unmarked) [Compound 8a, 7-Acetyl-1-amino-5,8-dimethyl-8-hydroxy-6-(4-N,N-dimethylaminophenyl)-N-phenyl-6,7,8,9-tetrahydrothieno[2,3-c]isoquinoline-2-carboxamide]
Toxicity % ([1]; A549, Conc. 0.04875 µMol): 3.135%
Toxicity % ([1]; A549, Conc. 0.0975 µMol): 3.679%
Toxicity % ([1]; A549, Conc. 0.195 µMol): 4.221%
Viability % ([1]; A549, Conc. 0.195 µMol): 95.78%
Toxicity % ([1]; A549, Conc. 0.391 µMol): 10.77%
Viability % ([1]; A549, Conc. 0.391 µMol): 89.23%
Toxicity % ([1]; A549, Conc. 0.781 µMol): 39.61%
Viability % ([1]; A549, Conc. 0.781 µMol): 60.39%
Toxicity % ([1]; A549, Conc. 1.562 µMol): 53.57%
Viability % ([1]; A549, Conc. 1.562 µMol): 46.43%
Toxicity % ([1]; A549, Conc. 3.125 µMol): 74.67%
Viability % ([1]; A549, Conc. 3.125 µMol): 25.33%
Toxicity % ([1]; A549, Conc. 6.25 µMol): 88.24%
Viability % ([1]; A549, Conc. 6.25 µMol): 11.76%
Toxicity % ([1]; A549, Conc. 12.5 µMol): 96.69%
Viability % ([1]; A549, Conc. 12.5 µMol): 3.314%
Toxicity % ([1]; A549, Conc. 25 µMol): 97.95%
Viability % ([1]; A549, Conc. 25 µMol): 2.051%
IC50 [1]: 1045 ± 6 nM
DPPH scavenging, inhibition (%) ([2]; 0.01 µg/mL): 14.22 ± 1.32%
DPPH scavenging, inhibition (%) ([2]; 0.05 µg/mL): 23.66 ± 2.12%
IC50 [3]: 872 ± 3 nM
Toxicity % ([3]; MCF7, Conc. 0.0487 µMol): -1.567%
Viability % ([3]; MCF7, Conc. 0.0487 µMol): 101.5%
Toxicity % ([3]; MCF7, Conc. 0.0975 µMol): -0.5332%
Viability % ([3]; MCF7, Conc. 0.0975 µMol): 100.6%
Toxicity % ([3]; MCF7, Conc. 0.195 µMol): -0.4085%
Viability % ([3]; MCF7, Conc. 0.195 µMol): 100.4%
Toxicity % ([3]; MCF7, Conc. 0.391 µMol): 8.047%
Viability % ([3]; MCF7, Conc. 0.391 µMol): 91.95%
Toxicity % ([3]; MCF7, Conc. 0.781 µMol): 34.56%
Viability % ([3]; MCF7, Conc. 0.781 µMol): 65.44%
Toxicity % ([3]; MCF7, Conc. 1.562 µMol): 65.28%
Viability % ([3]; MCF7, Conc. 1.562 µMol): 34.72%
Toxicity % ([3]; MCF7, Conc. 3.125 µMol): 87.21%
Viability % ([3]; MCF7, Conc. 3.125 µMol): 12.79%
Toxicity % ([3]; MCF7, Conc. 6.25 µMol): 94.16%
Viability % ([3]; MCF7, Conc. 6.25 µMol): 5.842%
Toxicity % ([3]; MCF7, Conc. 12.5 µMol): 96.9%
Viability % ([3]; MCF7, Conc. 12.5 µMol): 3.105%
Toxicity % ([3]; MCF7, Conc. 25 µMol): 97.43%
Viability % ([3]; MCF7, Conc. 25 µMol): 2.574%

CC(=O)C1C(c2ccc(N(C)C)cc2)c2c(C)[nH]c(=S)c(C#N)c2CC1(C)O (centres unmarked) [Compound 1, 7-Acetyl-4-cyano-1,6-dimethyl-6-hydroxy-8-(4-N,N-dimethylaminophenyl)-5,6,7,8-tetrahydroisoquinoline-3(2H)-thione]
Toxicity % ([1]; A549, Conc. 0.0487 µMol): 1%
Viability % ([1]; A549, Conc. 0.0487 µMol): 99%
Viability % ([1]; A549, Conc. 0.0975 µMol): 98.2%
Toxicity % ([1]; A549, Conc. 0.195 µMol): 3%
Viability % ([1]; A549, Conc. 0.195 µMol): 97%
Toxicity % ([1]; A549, Conc. 0.391 µMol): 7.89%
Viability % ([1]; A549, Conc. 0.391 µMol): 92.11%
Toxicity % ([1]; A549, Conc. 0.781 µMol): 21.85%
Viability % ([1]; A549, Conc. 0.781 µMol): 78.15%
Toxicity % ([1]; A549, Conc. 1.562 µMol): 34.99%
Viability % ([1]; A549, Conc. 1.562 µMol): 65.01%
Toxicity % ([1]; A549, Conc. 3.125 µMol): 59.76%
Viability % ([1]; A549, Conc. 3.125 µMol): 40.24%
Toxicity % ([1]; A549, Conc. 6.25 µMol): 76.21%
Viability % ([1]; A549, Conc. 6.25 µMol): 23.79%
Toxicity % ([1]; A549, Conc. 12.5 µMol): 90.77%
Viability % ([1]; A549, Conc. 12.5 µMol): 9.231%
Toxicity % ([1]; A549, Conc. 25 µMol): 96.84%
Viability % ([1]; A549, Conc. 25 µMol): 3.156%
IC50 [1]: 2219 ± 2 nM
DPPH scavenging, inhibition (%) ([2]; 0.01 µg/mL): 61.01 ± 0.58%
DPPH scavenging, inhibition (%) ([2]; 0.05 µg/mL): 92.3 ± 0.44%
antioxidant activity compared with Vitamin C [2]: higher result than Vitamin C; also recorded: higher antioxidant activity than Vitamin C
IC50 [3]: 1857 ± 8 nM
Toxicity % ([3]; MCF7, 0.0487 µMol): 0.2745%
Viability % ([3]; MCF7, 0.0487 µMol): 99.73%
Toxicity % ([3]; MCF7, 0.0975 µMol): 0.3246%
Viability % ([3]; MCF7, 0.0975 µMol): 99.68%
Toxicity % ([3]; MCF7, 0.195 µMol): 0.4493%
Viability % ([3]; MCF7, 0.195 µMol): 99.55%
Viability % ([3]; MCF7, 0.391 µMol): 91.95%
Toxicity % ([3]; MCF7, 0.781 µMol): 23.53%
Viability % ([3]; MCF7, 0.781 µMol): 76.47%
Toxicity % ([3]; MCF7, 1.562 µMol): 46.08%
Viability % ([3]; MCF7, 1.562 µMol): 53.92%
Toxicity % ([3]; MCF7, 3.125 µMol): 76.35%
Viability % ([3]; MCF7, 3.125 µMol): 23.65%
Toxicity % ([3]; MCF7, 6.25 µMol): 86.93%
Viability % ([3]; MCF7, 6.25 µMol): 13.07%
Toxicity % ([3]; MCF7, 12.5 µMol): 93.63%
Viability % ([3]; MCF7, 12.5 µMol): 6.373%
Toxicity % ([3]; MCF7, 25 µMol): 97.3%
Viability % ([3]; MCF7, 25 µMol): 2.696%
